Measurements: patent US5021551A, “Method of enhancing peptide immunogenicity” (Washington University, priority 1989, dated 1991)
Entries after “also recorded” stand apart in the source; their conditions may differ. Peptide text beside a SMILES is read from it.

Columns and labels:
Type in all cases: cell-based
[1] = test system: 3A9 T cell hybridoma (HEL(52-61) specific); test: T cell stimulation assay (IL-2 release, CTLL bioassay), 3A9 hybridoma
Experimental: (§1) The level of T cell stimulation was determined as previously described in detail by Allen and Unanue, J. Immunol. 132, 1077 (1984). In general, the level of T cell stimulation was determined by quantitating the amount of IL-2 produced by the T cell hybridomas. IL-2 was bioassayed by determining the level of ^3 H-Thymidine incorporation of the IL-2 dependent cell line, CTLL, 24 hours after culture in the test culture media. The source of antigen presenting cells were either peptone elicited peritoneal macrophages from CBA/J mice previously infected with Listeria monocytogenes or the B cell hybridoma, TA3 [Allen and Unanue, Id.; Allen et al, Proc. Natl. Acad. Sci. USA 81, 2489 (1984)]. Both sources of antigen presenting cells were fixed with paraformaldehyde prior to exposure to antigen.
(§2) The relative stimulatory capacity of derivatives of HEL (52-61) are shown. The relative stimulatory capacity of a peptide was determined by the relative shift in the concentration of antigen required for a 50% maximal response. For example, 300 fold less ^- 52-61^+. was required for a 50% maximal response than 52-61 with 3A9 T cells. The stimulation of 3A9 and 2All, two HEL (46-61) specific T cells, was determined as described in Materials and Methods. This test was performed three times, with identical results. A representative test is shown.

[2] = test system: 2A11 T cell hybridoma (HEL(52-61) specific); test: T cell stimulation assay (IL-2 release, CTLL bioassay), 2A11 hybridoma; settings: relative shift in antigen concentration required for 50% maximal response; 52-61 = 1
Experimental: as §1, §2

[3] = test system: A6.A2 T cell hybridoma (HEL (34-45) specific); test: T cell stimulation assay, A6.A2 hybridoma, fixed TA3 antigen-presenting cells; settings: FIG. 2
Experimental: (§3) FIG. 2a and 2b are graphical representation which show the stimulation of two T cell hybridomas, A6.A2 ([…]) and 18N.30 ([…]), that react with a modified T cell immunogenic peptide 34-45NH.sbsb.2 ( ) in another embodiment of the invention compared to normal peptide HEL (34-45) ( ). The assay was performed as described hereinafter in Materials and Methods of the Examples except fixed TA3 cells were used as the source of antigen-presenting cell.
as §1, with “Both sources of antigen presenting cells were fixed with paraformaldehyde prior to exposure to antigen.” left out
(§4) It was also determined whether the changes that enhanced the immunogenicity of HEL (52-61) could be extrapolated to another peptide of HEL which had been previously studied, namely the peptide comprising residues 34-45 [Allen et al, Immun. […]

[4] = test system: 18N.30 T cell hybridoma (HEL (34-45) specific); test: T cell stimulation assay, 18N.30 hybridoma, fixed TA3 antigen-presenting cells; settings: FIG. 2
Experimental: as §3
as §1, with “Both sources of antigen presenting cells were fixed with paraformaldehyde prior to exposure to antigen.” left out
as §4

Row | SMILES | stimulatory ability, 3A9 T cell (in words) ([1]; qualitative comparison) | Relative Stimulatory Capacity, T Cell 3A9 ([1]; relative shift in antigen concentration required for 50% maximal response, 52-61 = 1) | Relative Stimulatory Capacity, T Cell 2A11 [2] | increase in response of A6.A2 compared to unmodified HEL (34-45) [3] [fold] | increase in response of 18N.30 compared to unmodified HEL (34-45) [4] [fold]
1 | CC[C@H](C)[C@H](NC(=O)CNC(=O)[C@H](Cc1ccc(O)cc1)NC(=O)[C@H](CC(=O)O)NC(=O)[C@@H](N)CCCCN)C(=O)N[C@@H](CC(C)C)C(=O)N[C@@H](CCC(N)=O)C(=O)N[C@H](C(=O)N[C@@H](CC(N)=O)C(=O)N[C@@H](CO)C(=O)N[C@@H](CCCNC(=N)N)C(=O)N[C@@H](CCC(=O)O)C(=O)O)[C@@H](C)CC [^+- 52-61^-+] (H-KDYGILQINSRE-OH) | drastically reduced; also recorded: less active than HEL (52-61) | 0.3 | 10 |  | 
2 | C[C@H](NC(=O)[C@H](CCC(N)=O)NC(=O)[C@@H](NC(=O)[C@H](CC(N)=O)NC(=O)[C@H](Cc1ccccc1)NC(=O)[C@H](CC(N)=O)NC(=O)[C@H](CO)NC(=O)[C@H](CCC(=O)O)NC(=O)[C@@H](N)Cc1ccccc1)[C@@H](C)O)C(=O)N[C@H](C(=O)N[C@@H](CC(N)=O)C(=O)N[C@@H](CCCNC(=N)N)C(N)=O)[C@@H](C)O [HEL (34-45) with a C terminal amide] (H-FESNFNTQATNR-NH2) |  |  |  | 50 | 250
